Results from patent US20140343001A1, “INDOLE DERIVATIVES INHIBITORS OF ENZYME LACTATE DEHYDROGENASE (LDH)” (Universitá di Pisa, priority 2011, published 2014).

What follows are compounds tested against T1, hLDH5 (LDH-A) (Homo sapiens, UniProt P00338) (assay: Enzyme inhibition of human lactate dehydrogenase isoform 5). Conditions: ranges of values; 37° C., pH 7.4; read-out: inhibitory activity against hLDH5 (Ki).
T1 construct: purchased LEEBIO (USA)
Format: biochemical
Protocol: The compounds described in the examples were evaluated in enzymatic assays to assess its inhibitory properties against two human isoforms of lactate dehydrogenase, hLDH5 containing solely the subunit LDH-A (LEEBIO—USA), and the hLDH1 containing only the LDH subunits-B (Sigma Aldrich, USA), in order to verify the selectivity of these compounds.
(for Ki measurements). Such assays were conducted in cells containing 200 μL of a solution comprising the reagents dissolved in phosphate buffer (KH2PO4 and K2HPO4) at pH 7.4.
IC50 values were calculated as described below. […] Seven different concentrations (in duplicate for each concentration) of compound were used to generate a concentration-response curve. […] Compound solutions were dispensed in 96-well plates (8 μL), then substrate and cofactor dissolved in buffer (152 μl) and enzyme solution (40 μl) were finally added. Dilution of the enzyme stock solution was made to allow a 10% consumption of the cofactor after 15 min. The eventual background fluorescence of the tested compounds or quenching of the NADH fluorescence by the tested compounds was subtracted. In addition to the compound test wells, each plate contained maximum and minimum controls. Assay plates were incubated at room temperature for 15 min and the final measurements were performed using Victor X3 Microplates reader (PerkinElmer®) at a fluorescence emission wavelength of 460 nm (excitation at 340 nm). IC50 were generated using the curve-fitting tool of GraphPad Prism].
The resulting data of enzymatic kinetic (the constants of Michaelis-Menten) were determined by analysis of non-linear regression.

| Ki [µM] | Compound |
| --- | --- |
| 10 to 100 | O=C(O)c1cc2c(C(F)(F)F)cc(-c3ccccc3)cc2n1O[C@@H]1O[C@H](CO)[C@@H](O)[C@H](O)[C@H]1O [Example 2, 6-phenyl-1-(β-D-glucopyranosyl)oxy-4-(trifluoromethyl)-1H-indole-2-carboxylic acid] |
| 1 to 10 | COC(=O)c1cc2c(C(F)(F)F)cc(-c3ccc(OC(F)(F)F)cc3)cc2n1O [Example 18, methyl 1-hydroxy-4-(trifluoromethyl)-6-(4-(trifluoromethoxy)phenyl)-1H-indole-2-carboxylate] |
| 0.5 to 5 | O=C(O)c1cc2c(C(F)(F)F)cc(-c3ccc(OC(F)(F)F)cc3)cc2n1O [Example 24, 1-hydroxy-4-(trifluoromethyl)-6-(4-(trifluoromethoxy)phenyl)-1H-indole-2-carboxylic acid] |
| 1 to 10 | O=C(O)c1cc2c(C(F)(F)F)cc(-c3ccc(Cl)c(Cl)c3)cc2n1O [Example 27, 6-(3,4-dichlorophenyl)-1-hydroxy-4-(trifluoromethyl)-1H-indole-2-carboxylic acid] |
| 1 to 10 | O=C(O)c1cc2c(C(F)(F)F)cc(-c3cccc(Cl)c3Cl)cc2n1O [Example 37, 6-(2,3-dichlorophenyl)-1-hydroxy-4-(trifluoromethyl)-1H-indole-2-carboxylic acid] |
| 5 to 25 | O=C(O)c1cc2c(C(F)(F)F)cc(-c3cc(Cl)ccc3Cl)cc2n1O [Example 39, 6-(2,5-dichlorophenyl)-1-hydroxy-4-(trifluoromethyl)-1H-indole-2-carboxylic acid] |

Same assay, conditions: ranges of values; room temperature, pH 7.4; read-out: inhibitory activity against hLDH5 (IC50)

| Compound | IC50 [µM] |
| --- | --- |
| CCOC(=O)c1cc2c(C(F)(F)F)cc(-c3ccccc3)cc2n1O[C@@H]1O[C@H](COC(C)=O)[C@@H](OC(C)=O)[C@H](OC(C)=O)[C@H]1OC(C)=O [Example 7, ethyl 6-phenyl-1-(β-d-2,3,4,6-tetra-O-acetylglucopyranosyl)oxy-4-(trifluoromethyl)-1H-indole-2-carboxylate] | > 100 |
| COC(=O)c1cc2c(C(F)(F)F)cc(-c3ccc(Cl)cc3Cl)cc2n1O[C@@H]1O[C@H](COC(C)=O)[C@@H](OC(C)=O)[C@H](OC(C)=O)[C@H]1OC(C)=O [Example 11, methyl 6-(2,4-dichlorophenyl)-1-(β-d-2,3,4,6-tetra-O-acetylglucopyranosyl)oxy-4-(trifluoromethyl)-1H-indole-2-carboxylate] | > 100 |
| CCOC(=O)c1cc2c(C(F)(F)F)cc(-c3ccc(Cl)cc3Cl)cc2n1O[C@@H]1O[C@H](COC(C)=O)[C@@H](OC(C)=O)[C@H](OC(C)=O)[C@H]1OC(C)=O [Example 13, ethyl 6-(2,4-dichlorophenyl)-1-(β-d-2,3,4,6-tetra-O-acetylglucopyranosyl)oxy-4-(trifluoromethyl)-1H-indole-2-carboxylate] | > 100 |
| COC(=O)c1cc2c(C(F)(F)F)cc(-c3ccc(Cl)c(Cl)c3)cc2n1O [Example 21, methyl 6-(3,4-dichlorophenyl)-1-hydroxy-4-(trifluoromethyl)-1H-indole-2-carboxylate] | > 100 |
| CCCCOC(=O)c1cc2c(C(F)(F)F)cc(-c3ccccc3)cc2n1O[C@@H]1O[C@H](COC(C)=O)[C@@H](OC(C)=O)[C@H](OC(C)=O)[C@H]1OC(C)=O [Example 28, butyl 6-phenyl-1-(β-D-2,3,4,6-tetra-O-acetylglucopyranosyl)oxy-4-(trifluoromethyl)-1H-indole-2-carboxylate] | > 100 |
| CC(=O)OC[C@H]1O[C@@H](On2c(C(=O)OC(C)C)cc3c(C(F)(F)F)cc(-c4ccc(Cl)cc4Cl)cc32)[C@H](OC(C)=O)[C@@H](OC(C)=O)[C@@H]1OC(C)=O [Example 44, isopropyl 6-(2,4-dichlorophenyl)-1-(β-d-2,3,4,6-tetra-O-acetylglucopyranosyl)oxy-4-(trifluoromethyl)-1H-indole-2-carboxylate] | > 100 |
| CC(C)OC(=O)c1cc2c(C(F)(F)F)cc(-c3ccc(Cl)cc3Cl)cc2n1O[C@@H]1O[C@H](CO)[C@@H](O)[C@H](O)[C@H]1O [Example 45, isopropyl 6-(2,4-dichlorophenyl)-1-(β-D-glucopyranosyl)oxy-4-(trifluoromethyl)-1H-indole-2-carboxylate] | > 100 |
| CCCCOC(=O)c1cc2c(C(F)(F)F)cc(-c3ccc(Cl)cc3Cl)cc2n1O[C@@H]1O[C@H](COC(C)=O)[C@@H](OC(C)=O)[C@H](OC(C)=O)[C@H]1OC(C)=O [Example 46, butyl 6-(2,4-dichlorophenyl)-1-(β-d-2,3,4,6-tetra-O-acetylglucopyranosyl)oxy-4-(trifluoromethyl)-1H-indole-2-carboxylate] | > 100 |
| CCCCOC(=O)c1cc2c(C(F)(F)F)cc(-c3ccc(Cl)cc3Cl)cc2n1O[C@@H]1O[C@H](CO)[C@@H](O)[C@H](O)[C@H]1O [Example 47, butyl 6-(2,4-dichlorophenyl)-1-(β-D-glucopyranosyl)oxy-4-(trifluoromethyl)-1H-indole-2-carboxylate] | > 100 |

Continued, values first:

| IC50 [µM] | Compound |
| --- | --- |
| 50 to 500 | COC(=O)c1cc2c(C(F)(F)F)cc(-c3ccccc3)cc2n1O[C@@H]1O[C@H](COC(C)=O)[C@@H](OC(C)=O)[C@H](OC(C)=O)[C@H]1OC(C)=O [Example 5, methyl 6-phenyl-1-(β-d-2,3,4,6-tetra-O-acetylglucopyranosyl)oxy-4-(trifluoromethyl)-1H-indole-2-carboxylate] |
| 50 to 500 | CCOC(=O)c1cc2c(C(F)(F)F)cc(-c3ccccc3)cc2n1O[C@@H]1O[C@H](CO)[C@@H](O)[C@H](O)[C@H]1O [Example 6, ethyl 6-phenyl-1-(β-D-glucopyranosyl)oxy-4-(trifluoromethyl)-1H-indole-2-carboxylate] |
| 50 to 500 | CCOC(=O)c1cc2c(C(F)(F)F)cc(-c3ccc(Cl)cc3Cl)cc2n1O[C@@H]1O[C@H](CO)[C@@H](O)[C@H](O)[C@H]1O [Example 12, ethyl 6-(2,4-dichlorophenyl)-1-(β-D-glucopyranosyl)oxy-4-(trifluoromethyl)-1H-indole-2-carboxylate] |
| 1 to 10 | COC(=O)c1cc2c(C(F)(F)F)cc(-c3ccccc3)c(-c3ccccc3)c2n1O [Example 14, methyl 1-hydroxy-6,7-diphenyl-4-(trifluoromethyl)-1H-indole-2-carboxylate] |
| 1 to 10 | COC(=O)c1c(C)c2c(C(F)(F)F)cc(-c3ccccc3)cc2n1O [Example 16, methyl 1-hydroxy-6-phenyl-3-methyl-4-(trifluoromethyl)-1H-indole-2-carboxylate] |
| 1 to 10 | COC(=O)c1c(C)c2c(C(F)(F)F)cc(-c3ccc(Cl)cc3Cl)cc2n1O [Example 20, methyl 6-(2,4-dichlorophenyl)-1-hydroxy-3-methyl-4-(trifluoromethyl)-1H-indole-2-carboxylate] |
| 1 to 10 | Cc1c(C(=O)O)n(O)c2cc(-c3ccc(Cl)cc3Cl)cc(C(F)(F)F)c12 [Example 26, 6-(2,4-dichlorophenyl)-1-hydroxy-3-methyl-4-(trifluoromethyl)-1H-indole-2-carboxylic acid] |
| 0.01 to 1 | CC(C)(C)C1CCC(OC(=O)c2cc3c(C(F)(F)F)cc(-c4ccccc4)cc3n2O)CC1 (stereo not drawn) [Example 49, 4-(tert-butyl)cyclohexyl 1-hydroxy-6-phenyl-4-(trifluoromethyl)-1H-indole-2-carboxylate] |
| 0.01 to 1 | CC(C)(C)C1CCC(OC(=O)c2cc3c(C(F)(F)F)cc(-c4ccc(Cl)cc4Cl)cc3n2O)CC1 (stereo not drawn) [Example 50, 4-(tert-butyl)cyclohexyl 6-(2,4-dichlorophenyl)-1-hydroxy-4-(trifluoromethyl)-1H-indole-2-carboxylate] |
